Here are results for two compounds from patent US20240067693A1, “POLYPEPTIDES AND USES THEREOF” (MEDIMMUNE LIMITED, priority 2020, published 2024).

Structures are written as SMILES. Numbered stars: 1 amine (or outer) side, 2 acyl side, 3 side chain; on linkers, the order of the positions; unused ones are H or OH. Bridge positions count the residues as written; N and C are the ends. Square brackets hold non-standard residues; d marks the D form. Side chains are listed from the residue outwards. Peptide text beside a SMILES is read from it. * marks the point of attachment. C18 diacid = O=C(O)CCCCCCCCCCCCCCCCC(=O)*; γGlu = O=C(O)[C@H](CCC(=O)[*:2])N[*:1]; αMeF = C[C@](N)(Cc1ccccc1)C(=O)O

For series [1], the target named is T1, human amylin receptor (calcitonin receptor co-expressed with receptor activity modifying protein, RAMP3) (hAMYR3) (Homo sapiens, UniProt O60896+P30988).
T1 construct: expressed in transfected cells
T1 sequence (P30988 25-474): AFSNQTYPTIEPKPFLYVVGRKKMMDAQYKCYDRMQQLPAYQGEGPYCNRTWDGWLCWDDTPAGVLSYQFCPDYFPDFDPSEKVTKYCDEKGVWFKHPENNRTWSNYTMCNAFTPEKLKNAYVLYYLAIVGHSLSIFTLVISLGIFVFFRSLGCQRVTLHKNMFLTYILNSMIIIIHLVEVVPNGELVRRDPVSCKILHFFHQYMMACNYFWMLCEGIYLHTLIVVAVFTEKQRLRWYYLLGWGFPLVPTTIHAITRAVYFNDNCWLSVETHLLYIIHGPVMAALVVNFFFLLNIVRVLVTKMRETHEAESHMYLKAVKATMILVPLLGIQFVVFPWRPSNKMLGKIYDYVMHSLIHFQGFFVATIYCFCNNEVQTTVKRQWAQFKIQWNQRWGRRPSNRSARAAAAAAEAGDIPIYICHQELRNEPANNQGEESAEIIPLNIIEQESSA
T1 sequence (O60896 24-148 partner): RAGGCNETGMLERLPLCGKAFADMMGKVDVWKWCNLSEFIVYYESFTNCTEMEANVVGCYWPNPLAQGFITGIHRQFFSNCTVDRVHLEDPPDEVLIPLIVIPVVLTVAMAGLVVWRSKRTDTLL
Kind of series: cAMP production in 1321N1 cells with stable recombinant expression of human amylin receptor (hAMYR3). The format is cell-based. The conditions noted are these: for Ratio (selectivity hAMYR vs hCTR, ratio of EC50 values at the two receptors): EC50 hCTR / EC50 hAMYR3; for EC50: cAMP, 1321N1 cells, assay buffer with 0.1% BSA, read-out: EC50 (pM) hAMYR3. The essentials:
(§1)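 Thawed cells in HBSS/0.1% BSA/25 mM HEPES pH 7.4 with 0.5 mM IBMX were incubated with peptides 30 min at room temperature; cAMP read by HTRF. EC50 from 4-parameter fit of % activation relative to maximal amylin or calcitonin effect.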

Series [2] in a line: Thioflavin T fibrillation assay. Type of series: physicochemical. The conditions noted are these: ThT fibrillation assay; peptide 1 mg/mL in 25 mM sodium acetate buffer pH 4.0; 6 days at 37 °C with shaking; >144 h = no increase. From the text:
Peptide aggregation that form fibrils is an indication of physical instability. Fibril formation in solution poses a significant risk for the stability of injectable peptide drug products. Thioflavin T (ThT) fibrillation assay is a useful tool to assess the aggregation kinetics of a peptide or protein under accelerated and stressed conditions that can be used to forecast the long-term viability of a compound in solution. ThT can selectively bind amyloid fibrils and the resultant complex emits strong fluorescence signal at 482 nm when excited at 450 nm (Anal Biochem. 1989 Mar;177(2):244-9). Monitoring of the change in fluorescence signal is an established method to study the fibril forming potential of peptides and proteins. ThT (purchased from Sigma Aldrich) stock solution is prepared by dissolving the ThT powder in Milli-Q water and filtered to obtain a 0.25 mM solution. The concentration of the solution is measured at 412 nm using an extinction coefficient of 36 mM^−1cm^−1. Test peptides were dissolved at 1 mg/mL in 25 mM sodium acetate buffer pH 4.0. 100 μL aliquot of peptide solution and 5 μL aliquot of ThT solution were placed in a clear bottom black fluorescence 96-well plate. 5 replicates of each test samples were placed in zo the same row of the plate. Buffer was placed in control wells for baseline correction. All empty wells were filled with water to prevent evaporation. The plate was sealed with aluminium seal and placed in fluorescence plate reader and incubated for 6 days at 37 ° C. with intermittent orbital shaking at 500 to 750 rpm. The fluorescence intensity was measured every 30 min using excitation at 444 nm and emission at 480 nm. The fibril forming potential of the test peptides was determined by measuring the average time taken to detect an increase in baseline corrected fluorescence intensity.

Series [3] concerns the target T2, human calcitonin receptor (hCTR) (Homo sapiens, UniProt P30988).
T2 construct: expressed in transfected cells
T2 sequence (P30988 25-474): T1 sequence (P30988 25-474)
Kind of series: cAMP production in 1321N1 cells with stable recombinant expression of human calcitonin receptor (hCTR). Type of series: cell-based. The conditions noted are these: cAMP, 1321N1 cells, assay buffer with 0.1% BSA; read-out: EC50 (pM) hCTR. Put shortly:
as §1

For the compound `CC[C@H](C)[C@H](NC(=O)[C@@H]1CCCN1C(=O)CNC(=O)[C@](C)(Cc1ccccc1)NC(=O)[C@H](CC(N)=O)NC(=O)[C@H](CC(N)=O)NC(=O)[C@H](CO)NC(=O)[C@H](CO)NC(=O)[C@H](Cc1c[nH]cn1)NC(=O)[C@H](CCCNC(=N)N)NC(=O)[C@H](CC(C)C)NC(=O)[C@H](Cc1ccccc1)NC(=O)[C@H](CCC(=O)O)NC(=O)[C@H](C)NC(=O)[C@H](CC(C)C)NC(=O)[C@H](CCCNC(=N)N)NC(=O)[C@H](CCC(N)=O)NC(=O)[C@@H](NC(=O)[C@H](C)NC(=O)[C@@H]1CSSC[C@H](NC(=O)[C@@H](N)CCCCNC(=O)CC[C@H](NC(=O)CC[C@H](NC(=O)CCCCCCCCCCCCCCCCC(=O)O)C(=O)O)C(=O)O)C(=O)N[C@@H](CC(N)=O)C(=O)N[C@@H]([C@@H](C)O)C(=O)N[C@@H](C)C(=O)N[C@@H]([C@@H](C)O)C(=O)N1)[C@@H](C)O)C(=O)N[C@@H](CC(C)C)C(=O)N1CCC[C@H]1C(=O)N1CCC[C@H]1C(=O)N[C@H](C(=O)N[C@@H](CC(N)=O)C(=O)N[C@H](C(=O)NCC(=O)N[C@@H](CO)C(=O)N[C@@H](CC(N)=O)C(=O)N[C@H](C(=O)N[C@@H](Cc1ccc(O)cc1)C(N)=O)[C@@H](C)O)C(C)C)[C@@H](C)O` [Peptide 11, K(γE-γE-C18diacid)[CNTATC]ATQRLAEFLRHSSNN(αMePhe)GPILPPTNVGSNTY-amide] (H-K([γGlu-γGlu-C18 diacid])CNTATCATQRLAEFLRHSSNN[αMeF]GPILPPTNVGSNTY-NH2; disulfide 2-7), in series [1], the “Ratio (selectivity hAMYR vs hCTR, ratio of EC50 values at the two receptors)” value was determined as 21 and the EC50 stood at 177 pM. The “Time taken to detect increase in fluorescence intensity” value in series [2] is recorded as greater than 144 h. The EC50 in series [3] came to 3640 pM.
`CC[C@H](C)[C@H](NC(=O)[C@@H]1CCCN1C(=O)CNC(=O)[C@](C)(Cc1ccccc1)NC(=O)[C@H](CC(N)=O)NC(=O)[C@H](CC(N)=O)NC(=O)[C@H](CO)NC(=O)[C@H](CO)NC(=O)[C@H](Cc1c[nH]cn1)NC(=O)[C@@H](NC(=O)[C@H](CC(C)C)NC(=O)[C@H](Cc1ccccc1)NC(=O)[C@H](CC(N)=O)NC(=O)[C@H](C)NC(=O)[C@H](CC(C)C)NC(=O)[C@H](CCCNC(=N)N)NC(=O)[C@H](CCC(N)=O)NC(=O)[C@@H](NC(=O)[C@H](C)NC(=O)[C@@H]1CSSC[C@H](NC(=O)[C@@H](N)CCCCNC(=O)CC[C@H](NC(=O)CC[C@H](NC(=O)CCCCCCCCCCCCCCCCC(=O)O)C(=O)O)C(=O)O)C(=O)N[C@@H](CC(N)=O)C(=O)N[C@@H]([C@@H](C)O)C(=O)N[C@@H](C)C(=O)N[C@@H]([C@@H](C)O)C(=O)N1)[C@@H](C)O)C(C)C)C(=O)N[C@@H](CC(C)C)C(=O)N1CCC[C@H]1C(=O)N1CCC[C@H]1C(=O)N[C@H](C(=O)N[C@@H](CC(N)=O)C(=O)N[C@H](C(=O)NCC(=O)N[C@@H](CO)C(=O)N[C@@H](CC(N)=O)C(=O)N[C@H](C(=O)N[C@@H](Cc1ccc(O)cc1)C(N)=O)[C@@H](C)O)C(C)C)[C@@H](C)O` [Peptide 13, K(γE-γE-C18diacid)[CNTATC]ATQRLANFLVHSSNN(αMePhe)GPILPPTNVGSNTY-amide] (H-K([γGlu-γGlu-C18 diacid])CNTATCATQRLANFLVHSSNN[αMeF]GPILPPTNVGSNTY-NH2; disulfide 2-7; N-terminus assumed): in series [1], the “Ratio (selectivity hAMYR vs hCTR, ratio of EC50 values at the two receptors)” value is 10 and the concentration giving a half-maximal response (EC50) is 196 pM. In series [2], the “Time taken to detect increase in fluorescence intensity” value is 25 h. For the same compound, the EC50 in series [3] came out at 2040 pM.
